# Laboratory results reported in the supplement of paper PMC10307832.
# What was measured:
# Assay in all cases: relative viability (nuclei count vs DMSO), 5 days (fraction); higher = more cells survive
# BX 795 + Crizotinib = compound: O=C(NCCCNc1nc(Nc2cccc(NC(=O)N3CCCC3)c2)ncc1I)c1cccs1 [BX 795] + C[C@@H](Oc1cc(-c2cnn(C3CCNCC3)c2)cnc1N)c1c(Cl)ccc(F)c1Cl [Crizotinib] (partner 1 µM)
# Method in brief: (§1)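 Each reported value is a median over duplicate plates. It expresses relative viability: treated-well nuclei count divided by vehicle-well nuclei count. Lung cancer cell lines in 1536-well plates were dosed by pin tool a day after seeding, alone with one drug or with a fixed anchor-drug dose plus five library-drug doses (not always all listed) in √10 steps, and nuclei were counted after 5 days.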
# BX 795 + Linsitinib = compound: O=C(NCCCNc1nc(Nc2cccc(NC(=O)N3CCCC3)c2)ncc1I)c1cccs1 [BX 795] + C[C@]1(O)C[C@@H](c2nc(-c3ccc4ccc(-c5ccccc5)nc4c3)c3c(N)nccn32)C1 [Linsitinib] (partner 1 µM)
# Method in brief: as §1
# BX 795 + Tozasertib = compound: O=C(NCCCNc1nc(Nc2cccc(NC(=O)N3CCCC3)c2)ncc1I)c1cccs1 [BX 795] + Cc1cc(Nc2cc(N3CCN(C)CC3)nc(Sc3ccc(NC(=O)C4CC4)cc3)n2)n[nH]1 [Tozasertib] (partner 0.1 µM)
# Method in brief: as §1
# BX 795 + AZD7762 = compound: O=C(NCCCNc1nc(Nc2cccc(NC(=O)N3CCCC3)c2)ncc1I)c1cccs1 [BX 795] + NC(=O)Nc1cc(-c2cccc(F)c2)sc1C(=O)N[C@H]1CCCNC1 [AZD7762] (partner 0.2 µM)
# Method in brief: as §1
# BX 795 + Vorinostat = compound: O=C(NCCCNc1nc(Nc2cccc(NC(=O)N3CCCC3)c2)ncc1I)c1cccs1 [BX 795] + O=C(CCCCCCC(=O)Nc1ccccc1)NO [Vorinostat] (partner 1 µM)
# Method in brief: as §1
Cell Line,relative viability (BX 795 + Crizotinib; first compound 0.04 µM),relative viability (BX 795 + Crizotinib; first compound 0.1265 µM),relative viability (BX 795 + Crizotinib; first compound 0.4 µM),relative viability (BX 795 + Crizotinib; first compound 1.265 µM),relative viability (BX 795 + Linsitinib; first compound 0.04 µM),relative viability (BX 795 + Linsitinib; first compound 0.1265 µM),relative viability (BX 795 + Linsitinib; first compound 0.4 µM),relative viability (BX 795 + Linsitinib; first compound 1.265 µM),relative viability (BX 795 + Tozasertib; first compound 0.04 µM),relative viability (BX 795 + Tozasertib; first compound 0.1265 µM),relative viability (BX 795 + Tozasertib; first compound 0.4 µM),relative viability (BX 795 + Tozasertib; first compound 1.265 µM),relative viability (BX 795 + AZD7762; first compound 0.04 µM),relative viability (BX 795 + AZD7762; first compound 0.1265 µM),relative viability (BX 795 + AZD7762; first compound 0.4 µM),relative viability (BX 795 + AZD7762; first compound 1.265 µM),relative viability (BX 795 + Vorinostat; first compound 0.04 µM),relative viability (BX 795 + Vorinostat; first compound 0.1265 µM),relative viability (BX 795 + Vorinostat; first compound 0.4 µM),relative viability (BX 795 + Vorinostat; first compound 1.265 µM)
HCC-15,0.784,0.883,0.743,0.461,0.915,0.964,0.937,0.675,0.444,0.359,0.482,0.246,1.21,1.26,1.27,1.18,0.773,0.865,0.818,0.718
HCC-44,0.811,0.876,0.973,0.581,0.648,0.668,0.787,0.426,0.934,1.05,0.581,0.351,0.976,1,1.09,1.09,1.08,1.12,1.18,1.07
HCC-78,0.413,0.354,0.355,0.318,0.624,0.657,0.534,0.554,0.472,0.317,0.345,0.386,0.583,0.631,0.606,0.594,0.474,0.419,0.399,0.352
HCC-366,0.541,0.616,0.188,0.313,0.469,0.727,0.257,0.3,0.228,0.0924,0.0936,0.0708,0.228,0.227,0.19,0.306,0.311,0.295,0.224,0.0717
HCC-827,0.935,0.923,0.892,0.712,0.972,0.849,0.987,0.75,0.416,0.45,0.429,0.417,0.206,0.224,0.211,0.221,0.756,0.689,0.901,0.79
HOP-62,1.04,0.953,1.13,0.941,0.915,1.02,1.2,0.525,0.381,0.441,0.361,0.275,0.602,0.715,0.672,0.528,0.807,0.638,0.546,0.456
LC-2-ad,0.558,0.316,0.325,0.402,0.83,0.715,0.637,0.351,0.611,0.475,0.419,0.384,0.806,0.808,0.795,0.858,0.755,0.759,0.595,0.37
LCLC-97TM1,0.475,0.431,0.306,0.209,0.156,0.204,0.198,0.153,0.356,0.24,0.305,0.232,0.334,0.352,0.239,0.346,0.774,0.725,0.768,0.468
LCLC-103H,0.979,1.1,1.01,1.04,1.12,1.16,0.901,1.09,0.476,0.475,0.477,0.379,0.706,0.878,0.712,0.849,0.675,0.811,0.699,0.695
LK-2,0.238,0.171,0.21,0.193,0.518,0.396,0.484,0.393,0.164,0.185,0.16,0.175,0.367,0.33,0.445,0.3,0.398,0.37,0.286,0.239
LOU-NH91,0.768,0.721,0.715,0.796,0.925,0.956,0.802,0.94,0.699,0.609,0.525,0.568,0.757,0.765,0.71,0.722,0.846,0.955,0.842,0.903
LU99A,0.646,0.593,0.455,0.361,0.552,0.631,0.467,0.225,0.3,0.286,0.287,0.261,0.344,0.355,0.347,0.24,0.472,0.485,0.37,0.363
LXF-289,0.86,0.82,0.778,0.47,0.969,0.949,1.03,0.678,0.209,0.155,0.154,0.142,1.07,1.14,0.995,1.06,0.838,0.719,0.811,0.674
NCI-H23,0.459,0.503,0.374,0.257,0.584,0.655,0.441,0.387,0.327,0.639,0.314,0.234,0.38,0.231,0.237,0.345,0.583,0.651,0.376,0.285
NCI-H322M,0.906,0.959,0.711,0.912,0.984,1.01,1.02,0.967,0.456,0.488,0.372,0.47,0.62,0.532,0.555,0.753,0.981,0.884,1.36,1.18
NCI-H358,0.652,0.38,0.367,0.17,0.679,0.705,0.601,0.228,0.1,0.107,0.0928,0.098,0.518,0.556,0.372,0.433,0.716,0.661,0.434,0.138
NCI-H441,0.874,0.695,0.878,0.508,0.667,0.528,0.854,0.326,0.857,0.567,0.834,0.376,1.23,1.21,1.07,0.866,0.893,0.843,0.848,0.613
NCI-H460,0.859,1.17,0.684,0.192,0.708,1.01,0.605,0.281,0.497,0.44,0.0824,0.184,0.587,0.616,0.664,0.767,0.822,0.967,0.48,0.285
NCI-H596,1.08,1.02,1.03,0.874,1.09,1.25,1.16,1.03,0.963,0.906,1.03,0.699,1.11,0.956,1.14,1.03,0.669,0.585,0.623,0.594
NCI-H647,1.08,1.17,0.955,0.242,1.25,1.16,1.28,0.601,0.256,0.352,0.218,0.233,0.554,0.493,0.43,0.363,0.553,0.658,0.571,0.189
NCI-H650,0.712,0.771,0.421,0.619,0.752,0.739,1.03,0.549,0.864,0.769,0.583,0.488,0.843,0.908,0.701,1.05,0.391,0.429,0.339,0.34
NCI-H727,0.868,0.986,0.634,0.492,0.294,0.247,0.277,0.24,0.683,0.706,0.512,0.546,0.614,0.535,0.671,0.531,1.29,1.25,1.14,1.21
NCI-H838,0.781,0.689,0.628,0.356,0.936,0.986,0.881,0.331,0.236,0.303,0.272,0.22,0.94,0.981,0.786,0.824,0.737,0.69,0.642,0.201
NCI-H1355,1.03,0.937,1.1,0.961,0.768,0.869,0.811,0.65,0.589,0.442,0.486,0.385,0.784,0.607,0.734,0.69,0.649,0.63,0.696,0.487
NCI-H1437,0.871,0.96,1.03,0.562,1.05,1.07,0.992,0.769,0.378,0.395,0.429,0.413,1.14,1.14,0.888,1.18,0.765,0.945,1.02,0.621
NCI-H1651,0.945,0.948,0.852,0.853,0.999,1.1,1.02,0.831,0.711,0.709,0.59,0.641,0.469,0.457,0.463,0.511,0.553,0.478,0.548,0.541
